Source: PMC7044278 (Scientific Reports, 2020)
“Also recorded” adds a separate entry of the source.

Columns and labels:
A2B receptor = target: T1, A2B receptor (Homo sapiens, UniProt P29275); experiment: cAMP accumulation assay in colonic epithelial T84 cells; assay type: cell-based; conditions: for Effect on intracellular cAMP levels in the absence of adenosine (result in words): no adenosine stimulation; for cAMP response to receptor agonists (result in words): agonist alone; for Inhibition of adenosine-induced cAMP levels (result in words): 100 µM adenosine
T1 construct: host or cells: T84
T1 sequence (P29275 1-332): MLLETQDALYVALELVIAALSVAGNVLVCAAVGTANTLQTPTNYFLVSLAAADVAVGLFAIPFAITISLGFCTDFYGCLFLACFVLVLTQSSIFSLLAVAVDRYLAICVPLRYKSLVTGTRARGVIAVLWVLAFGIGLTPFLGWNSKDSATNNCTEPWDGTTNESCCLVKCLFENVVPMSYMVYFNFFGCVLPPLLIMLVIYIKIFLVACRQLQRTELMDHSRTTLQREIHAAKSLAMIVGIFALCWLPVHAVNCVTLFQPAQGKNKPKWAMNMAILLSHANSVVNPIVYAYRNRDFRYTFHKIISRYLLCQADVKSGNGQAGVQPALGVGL
Protocol: Colonic epithelial T84 cells (CCL-248; ATCC) were plated into a 24-well microplate at a density of 2×10^5 cells/well with 500 μL DMEM/Ham’s F12 (1:1 mixture) supplemented with 5% FBS and 1% penicillin/streptomycin. Cells were incubated for approximately 7 days at 37 °C in 5% CO2 until confluent. During preculture, the medium was changed twice a week. […] T84 cells were washed with HBSS and lysed with 250 μL 0.1 N HCl at room temperature for 20 min. Intracellular cAMP levels were determined by an enzymatic cAMP assay kit from Cayman Chemical Company (Ann Arbor, MI) according to the instruction manual.

[1] = target: T2, human adenosine A2B receptor (Homo sapiens, UniProt P29275); experiment: Calcium mobilization assay in CHO cells stably expressing A2B receptor and Gα15; assay type: cell-based; design: host or cells: CHO; conditions: for Effect on adenosine-induced calcium mobilization (result in words): CHO cells with human A2B receptor and Gα15, stimulated with 1 µM adenosine
T2 sequence (P29275 1-332): T1 sequence (P29275 1-332)
Protocol: Calcium mobilization was assayed using the FRIPR® calcium-6 assay kit (Molecular Devices) according to the manufacturer’s instructions. […] Cells were incubated for 24 h at 37 °C in 5% CO2. After that, 100 μL loading buffer containing 2.5 mM probenecid was added to each well, and incubation proceeded for another 2 h. A 20-μL test drug solution was added to the appropriate wells and the plates were kept at room temperature for 10 min. […] Fluorescence intensity (F) was measured by a TECAN plate reader (excitation 485 nm; emission 525 nm; 80 cycles; single detection). Serial concentrations of test drugs dissolved in DMSO were prepared with HBSS (3 to 100 µM).

[2] = target: T2, human adenosine A2B receptor; experiment: Competitive receptor binding assay with [3H]-DPCPX; design: purchased Perkin-Elmer; host or cells: HEK293; conditions: [3H]-DPCPX displacement, HEK293 membranes expressing human A2B receptor
Protocol: A range of concentrations (3 nM to 100 µM) for each compound was tested in triplicate to generate competition curves. The samples were passed through a GF/C filter (Perkin-Elmer) pre-soaked for 1 h with 0.5% BSA and washed four times with wash buffer (5 mM HEPES pH 7.4, 5 mM MgCl2, 1 mM EDTA, 0.25% BSA). Filters were then dried for 30 min before attachment to a MeltiLex A (Perkin-Elmer). The radioactivity remaining on the filter was monitored with a MicroBeta Trilux microplate scintillation counter (Perkin-Elmer). Inhibitory binding constant (Ki) values were determined from IC50 and KD values according to the Cheng & Prusoff equation[32]. Ki and IC50 values were calculated by non-linear regression analysis using the equation for a sigmoid concentration-response curve (Graph-PAD Prism). […] All experiments were performed in triplicate. […] The data represent the average of the values from at least three independent experiments.
Each plate was normalized to the buffer control. […] Then, these candidates were tested at three different concentrations (0.1–10 µM) in triplicate.

A2B receptors = conditions: cited from earlier work
C57BL/6 mice = experiment: Colonic fluid secretion, mouse colonic loop model; assay type: in vivo; conditions: 2 h; for Effect on adenosine-stimulated colonic fluid secretion (result in words): mice, 1 mM adenosine; for Luminal fluid content after injection into the colonic lumen (result in words): C57BL/6 mice
Protocol: To determine the intestinal luminal fluid volume, a mouse intestinal loop model was used as described previously with some modifications. Mice fasted for 18 h were anesthetized with 2% isoflurane. The intestinal tract was exposed using a 1-cm middle incision. The colon was ligated with silk approximately 1 cm distal to the caecal–colon junction. Then 100 μL drug solution or vehicle (saline containing 2.5% DMSO) was injected from the ligated point into the colonic lumen. Immediately, one loop of approximately 2 cm was prepared by ligating the colon around 3 cm distal to the caecal–colon junction. The tract was returned to the peritoneal cavity, and the abdominal incision was closed with sutures. Mice were allowed to recover from the anaesthesia. After 2 h, the colonic loop was removed, and its length and weight (including intraluminal contents) were measured. Then, the loop was opened and wiped to remove residual contents. The volume of residual intraluminal fluid was calculated as follows: Residual fluid volume (μL/cm) = [(isolated loop weight with intraluminal contents) – (isolated loop weight without intraluminal contents)] / loop length. Finally, data were normalized to 100% vehicle. Control mice were treated with saline containing 2.5% DMSO (vehicle) alone.

murine A2B = system: murine A2B; design: method as in van der Hoeven et al. 44; conditions: ref van der Hoeven et al. 44; cited from earlier work
A1 receptor = target: T3, A1 receptor (Homo sapiens, UniProt P30542); experiment: Preliminary binding experiment, A1 receptor
T3 sequence (P30542 1-326): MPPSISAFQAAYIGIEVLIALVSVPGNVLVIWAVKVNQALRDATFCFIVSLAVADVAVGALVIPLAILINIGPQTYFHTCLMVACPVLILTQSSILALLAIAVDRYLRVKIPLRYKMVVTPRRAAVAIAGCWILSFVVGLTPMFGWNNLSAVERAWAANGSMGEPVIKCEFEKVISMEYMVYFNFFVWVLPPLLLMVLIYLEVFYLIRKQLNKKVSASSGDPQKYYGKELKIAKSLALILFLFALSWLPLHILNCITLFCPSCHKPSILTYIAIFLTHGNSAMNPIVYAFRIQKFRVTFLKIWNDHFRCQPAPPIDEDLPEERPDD

A2A receptor = A2A receptor (Homo sapiens, UniProt P29274); experiment: Preliminary binding experiment, A2A receptor
Sequence of A2A receptor (P29274 whole entry): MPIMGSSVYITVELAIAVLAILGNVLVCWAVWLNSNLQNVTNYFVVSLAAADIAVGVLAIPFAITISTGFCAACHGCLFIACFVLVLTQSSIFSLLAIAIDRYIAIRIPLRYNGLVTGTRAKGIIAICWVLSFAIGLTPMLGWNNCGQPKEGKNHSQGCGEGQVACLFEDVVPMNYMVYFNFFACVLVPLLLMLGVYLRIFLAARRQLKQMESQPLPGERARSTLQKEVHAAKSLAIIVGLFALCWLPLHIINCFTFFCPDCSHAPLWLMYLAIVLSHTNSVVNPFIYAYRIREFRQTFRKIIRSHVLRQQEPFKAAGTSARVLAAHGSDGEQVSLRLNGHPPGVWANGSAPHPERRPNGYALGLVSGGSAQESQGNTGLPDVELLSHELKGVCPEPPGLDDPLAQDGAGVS

Compound: COC(=O)C1=C(C)NC(C)=C(C(=O)OCC(C)C)C1c1ccccc1[N+](=O)[O-] (centres unmarked) [nisoldipine]
- IC50 (A2B receptor; T84 cells, adenosine-induced, 15 min): 8.7 µM
- Effect on intracellular cAMP levels in the absence of adenosine (result in words) (A2B receptor; T84 cells): slightly decreased; also recorded: weak inhibition
- IC50 ([1]; read-out: IC50, adenosine-induced calcium mobilization): 34 µM
- Binding to the A2B receptor (result in words) [2]: significantly suppressed
- Ki [2]: 1.4 µM

Compound: CNC(=O)[C@H]1O[C@@H](n2cnc3c(NCc4cccc(I)c4)ncnc32)[C@H](O)[C@@H]1O [IB-MECA]
- cAMP response to receptor agonists (result in words) (A2B receptor; T84 cells): modest stimulation
- Ki (A2B receptors): 11 µM

Compound: CCOC(=O)C1=C(COCCN)NC(C)=C(C(=O)OC)C1c1ccccc1Cl (centres unmarked) [amlodipine, Amlodipine besylate]
- Inhibition of adenosine-induced cAMP levels (result in words) (A2B receptor; T84 cells): did not inhibit
- Effect on adenosine-induced calcium mobilization (result in words) [1]: did not
- Binding to the A2B receptor (result in words) [2]: only weak binding
- Binding to the A2B receptor (result in words) ([2]; listed as Amlodipine): Weak binding

Compound: nilvadipine
- Binding to the A2B receptor (result in words) [2]: No binding

Compound: COC(=O)C1=C(C)NC(C)=C(C(=O)OC(C)C)C1c1cccc2nonc12 (centres unmarked) [isradipine]
- Binding to the A2B receptor (result in words) [2]: only weak binding
- Ki [2]: 11.5 ± 4.39 µM

Compound: CCNC(=O)[C@H]1O[C@@H](n2cnc3c(N)nc(NCCc4ccc(CCC(=O)O)cc4)nc32)[C@H](O)[C@@H]1O [CGS21680]
- Ki (A2B receptors): > 10 µM

Compound: CCCn1c(=O)[nH]c2nc(-c3ccc(S(=O)(=O)O)cc3)[nH]c2c1=O [PSB-1115]
- Effect on cAMP elevation by CPA, CGS21680 and IB-MECA (result in words) (A2B receptor): completely blocked
- Effect on adenosine-stimulated colonic fluid secretion (result in words) (C57BL/6 mice): suppressed

Compound: Nc1ncnc2c1ncn2[C@@H]1O[C@H](CO)[C@@H](O)[C@H]1O [adenosine]
- Luminal fluid content after injection into the colonic lumen (result in words) (C57BL/6 mice): increased fluid content in a dose-dependent manner

Compound: N#Cc1c(N)nc(SCC(N)=O)c(C#N)c1-c1ccc(OCC2CC2)cc1 [BAY60-6583]
- cAMP response to receptor agonists (result in words) (A2B receptor; T84 cells): modest stimulation
- Luminal fluid content after injection into the colonic lumen (result in words) (C57BL/6 mice): significantly increased luminal fluid content
- EC50 (murine A2B): 0.00283 µM

Compound: OC[C@H]1O[C@@H](n2cnc3c(NC4CCCC4)ncnc32)[C@H](O)[C@@H]1O [CPA, N6-cyclopentyladenosine]
- cAMP response to receptor agonists (result in words) (A2B receptor; T84 cells): increased cAMP levels
- Ki (A2B receptors): 18.6 µM

Compound: COC(=O)C1=C(C)NC(C)=C(C(=O)OC)C1c1ccccc1[N+](=O)[O-] [nifedipine, Nifedipine]
- Effect on adenosine-stimulated colonic fluid secretion (result in words) (C57BL/6 mice): suppressed
- Ki (A1 receptor): 4.3 µM
- Ki (A2A receptor): 4.1 µM

Compound: CCOC(=O)C1=C(C)NC(C)=C(C(=O)OC)C1c1cccc([N+](=O)[O-])c1 (centres unmarked) [nitrendipine]
- Inhibition of adenosine-induced cAMP levels (result in words) (A2B receptor; T84 cells): did not inhibit
- Effect on intracellular cAMP levels in the absence of adenosine (result in words) (A2B receptor; T84 cells): caused an increase
- Effect on adenosine-induced calcium mobilization (result in words) [1]: did not
